Laboratory results: publication PMC7734336, “Riproximin Exhibits Diversity in Sugar Binding, and Modulates some Metastasis-Related Proteins with Lectin like Properties in Pancreatic Ductal Adenocarcinoma” (Frontiers in Pharmacology, 2020)

Columns and labels:
[1] = target: T1, Riproximin (Rpx) (Ximenia americana, UniProt Q2PA54); test: 1H NMR line broadening and waterLOGSY; assay type: binding; details: 298 K; pyranose anomers observed separately in one sample
[2] = target: T1, Riproximin (Rpx); test: waterLOGSY NMR; assay type: binding; details: 298 K; pyranose anomers observed separately in one sample

T1 sequence (Q2PA54 53-325 limits assumed): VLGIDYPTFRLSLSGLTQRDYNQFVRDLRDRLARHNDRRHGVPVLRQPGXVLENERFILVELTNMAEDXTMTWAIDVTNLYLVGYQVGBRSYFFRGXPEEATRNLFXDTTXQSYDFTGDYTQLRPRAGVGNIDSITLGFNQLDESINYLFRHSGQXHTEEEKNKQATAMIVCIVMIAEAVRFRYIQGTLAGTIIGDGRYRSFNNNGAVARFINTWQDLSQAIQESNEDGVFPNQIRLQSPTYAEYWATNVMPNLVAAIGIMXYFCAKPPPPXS
T1 sequence (Q2PA54 334-601 limits assumed): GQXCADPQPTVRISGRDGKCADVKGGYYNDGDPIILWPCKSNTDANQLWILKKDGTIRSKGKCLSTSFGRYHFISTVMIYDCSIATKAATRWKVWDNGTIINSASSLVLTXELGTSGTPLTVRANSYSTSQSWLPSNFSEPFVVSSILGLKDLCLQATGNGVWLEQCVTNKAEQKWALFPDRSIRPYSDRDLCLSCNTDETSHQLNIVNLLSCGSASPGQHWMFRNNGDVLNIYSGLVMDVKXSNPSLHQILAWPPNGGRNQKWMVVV

Structure (SMILES)	1H NMR line broadening and waterLOGSY [1]	waterLOGSY NMR [2]
OC[C@H]1OC(O)[C@H](O)[C@@H](O)[C@H]1O (mixture of isomers) [D-galactose]	The affinities of both D-galactose and L-fucose for Rpx were moderate as evident by clear	
C[C@@H]1OC(O)[C@@H](O)[C@H](O)[C@@H]1O (mixture of isomers) [L-fucose]	The methyl doublet signals of L-fucose show clear line broadening due to binding to Rpx	
C[C@@H]1OC(O)[C@H](O)[C@H](O)[C@H]1O (mixture of isomers) [L-rhamnose]		water-LOGSY spectrum confirmed nevertheless the very weak binding of both, the α- and β-anomers of l-rhamnose
